Results as given in patent publication US6933289B2, “Inhibition of irritating side effects associated with use of a topical ophthalmic medication” (Allergan, Inc., priority 2003, dated 2005).

Assays:
[1] = Phase-solubility analysis: association constant between bimatoprost and cyclodextrin or cyclodextrin derivative; format: physicochemical; details: 1:1 complex with bimatoprost, stirred one week at room temperature
Experimental: CD represents the associated complex of the two. […] CD], according to equation 2. [formula]
The association constant between the bimatoprost and four cyclodextrin or cyclodextrin derivatives was determined by running phase-solubility analysis. A series of small glass bottles was set up, each fitted with a screw cap and a magnetic stir bar with increasing concentrations of cyclodextrin or cyclodextrin derivative dissolved in a fixed volume (e.g., 10 mL) of aqueous vehicle (e.g., the formulation minus the drug and the cyclodextrin or cyclodextrin derivative). […] Bottles were then capped and the suspensions were stirred for a week at room temperature to ensure equilibrium. Undissolved drug was removed by centrifugation, followed by filtration through a 0.45 μm filter membrane to obtain a clear solution, free of drug in suspension. The concentration of the solubilized drug in each filtrate sample was determined and drug solubility (y-axis) was plotted against the concentration of the cyclodextrin or cyclodextrin derivative (x-axis). […] In principle, S0 is equivalent to the y intercept (b) of the fitted line, however, in most cases it can more accurately be determined by direct measurement of the solubility rather than indirectly from the fit of data.

[2] = 0.02% bimatoprost, cited from earlier work

Compound	Association Constant (molar association constant for bimatoprost) [1]	Hyperemia ([2]; no cyclodextrin)	Efficacy [2]
2-Hydroxypropyl β-cyclodextrin	≈1913 M^−1		
CCNC(=O)CCC/C=C\C[C@@H]1[C@@H](/C=C/[C@@H](O)CCc2ccccc2)[C@H](O)C[C@@H]1O [bimatoprost]		little hyperemia	loses efficacy
OC[C@H]1O[C@@H]2O[C@H]3[C@H](O)[C@@H](O)[C@@H](O[C@H]4[C@H](O)[C@@H](O)[C@@H](O[C@H]5[C@H](O)[C@@H](O)[C@@H](O[C@H]6[C@H](O)[C@@H](O)[C@@H](O[C@H]7[C@H](O)[C@@H](O)[C@@H](O[C@H]8[C@H](O)[C@@H](O)[C@@H](O[C@H]9[C@H](O)[C@@H](O)[C@@H](O[C@H]1[C@H](O)[C@H]2O)O[C@@H]9CO)O[C@@H]8CO)O[C@@H]7CO)O[C@@H]6CO)O[C@@H]5CO)O[C@@H]4CO)O[C@@H]3CO [γ-cyclodextrin]	≈439 M^−1		
Sulfobutyl ether β-cyclodextrin	≈1464 M^−1		
